Test system: full‐length APP
Assay: Cell-based γ-secretase cleavage assay, full-length APP stably overexpressing cells (Aβ ELISA)
Conditions: full-length APP overexpressing cells
Description: (§1) We next tested all GSIs on cAPPC100sub and full‐length APP stably overexpressing cells. […] The low‐dose potentiation of γ‐secretase cleavage was further mechanistically probed using in vitro assays with recombinant substrates and IP‐MS.
(§2) H4 cells were cultured in Opti‐mem media (Thermo‐Fisher) supplemented with Hyclone 6% fetal bovine serum (GE, Logan, Utah, USA) and 1% penicillin/streptomycin (Life Technologies, Grand Island, NY, USA). pCDNA3.1 plasmids containing the substrate cDNAs were transfected into H4 cells using FuGENE HD reagent (Madison, WI, USA). Stable cell lines were established using G418 selection. […] Cells and conditioned media were used for WB, IP, and ELISA.
(§3) Sandwich ELISAs used for Aβ detection were performed as previously described (Murphy et al, 1999; Ran et al, 2014). Briefly, Aβ and Aβ‐like peptides in conditioned media were captured with Ab5 antibody and detected with horseradish peroxidase labeled mAb 4G8 (Biolegend). Synthetic Aβ1‐40 was used as standard. All ELISAs were developed with TMB substrate (KPL, Gaithersburg, Maryland, USA). Bis‐Tris precast gels (Biorad, Hercules, CA, USA) were used for all SDS–PAGE. Monoclonal anti‐FLAG M2 antibody (Sigma) and Aβ1‐16 antibody 6E10 (Covance) were used for Western blotting at 1:1,000 dilution. Anti‐CD74 In‐1 antibody (BD Bioscience, San Jose, CA, USA) was used for A20 cell lysate Western blotting at dilution of 1:1,000. MDA‐MB‐231 cell extracts were prepared by lysing cells in RIPA buffer containing protease and phosphatase inhibitors. The lysates were kept on ice for 30 min and vortexed every 10 min, and then centrifuged at 4°C for 10 min at 1,000 g. The supernatants were collected, and protein concentrations were determined by Bradford Assay. Pan‐NOTCH1 antibody (C‐20) (Santa Cruz Biotechnology) and cleaved NOTCH1 (Val1744) antibody ([…]) were used at 1:500 and 1:100 dilution in the test of endogenous NOTCH1 inhibition with β‐actin expression used as loading control. β‐actin antibody was used at 1:1,000 dilution (Sigma). Band intensities normalized for actin using densitometry analysis with ImageJ Software (NIH, USA).

SMILES | low-dose potentiation of cleavage, APP
CC(C)(C(=O)NCC(F)(F)C(F)(F)F)C(=O)N[C@@H]1C(=O)Nc2ccccc2-c2ccccc21 [RO4929097] | low‐dose potentiation of cleavage was observed

Same assay, conditions: full-length APP stably overexpressing cells, Aβ ELISA

SMILES | IC50 [nM]
CN1C(=O)[C@@H](NC(=O)[C@H](CCC(F)(F)F)[C@H](CCC(F)(F)F)C(N)=O)N=C(c2ccccc2)c2ccccc21 [BMS‐906024] | 0.05
O=C(O)CC[C@H]1CC[C@@](c2cc(F)ccc2F)(S(=O)(=O)c2ccc(Cl)cc2)CC1 [MK‐0752] | 9.03
CCC[C@H](N[C@H]1CCc2cc(F)cc(F)c2C1)C(=O)Nc1cn(C(C)(C)CNCC(C)(C)C)cn1 [PF‐3084014] | 0.07
CC(C)(C(=O)NCC(F)(F)C(F)(F)F)C(=O)N[C@@H]1C(=O)Nc2ccccc2-c2ccccc21 [RO4929097] | 1.41
CC(C)[C@H](O)C(=O)N[C@@H](C)C(=O)N[C@@H]1C(=O)N(C)CCc2ccccc21 [Semagacestat] | 24.5

Test system: cNOTCH4sub
Assay: Cell-based γ-secretase cleavage assay, cNOTCH4sub in H4 cells (Aβ-like peptide ELISA)
Set-up: species or system human
Conditions: Aβ-like peptide in media, GSI overnight
Description: Using these cell‐based γ‐secretase cleavage assays, we systematically investigated the substrate inhibition profile of BMS‐906024, MK‐0752, PF‐308414, RO4929097, Semagacestat, and DAPT. We treated H4 cells stably expressing cNOTCH1‐4sub with 4 pM to 10 μM of GSIs (Fig 5A and Table 2) and measured the Aβ‐like peptide secreted into the media.
For the cell‐based assay, all substrates contain a human NOTCH4 signal peptide sequence ([…]), amyloid β peptide (Aβ1–25/K16A) epitope tag followed by the juxtamembrane region (JMD) of the given substrate and a FLAG tag ([…]) at the COOH‐terminal. K16A mutant was created to decrease potential α‐secretase cleavage. The cDNAs were generated by gene synthesis conducted by Genscript. A schematic representation of the substrates is provided in Fig 4A, and sequences of the cDNAs and the proteins are provided in Appendix Fig S6. For clarity, these substrates are referred to as cell‐based assay substrates (e.g., NOTCH1 is cNOTCH1sub). Substrate cDNAs were cloned into pCDNA3.1 (Invitrogen, Carlsbad, CA, USA) for expression in H4 cells (ATCC, Manassas, VA).
as §2, §3

SMILES | IC50 [nM]
CN1C(=O)[C@@H](NC(=O)[C@H](CCC(F)(F)F)[C@H](CCC(F)(F)F)C(N)=O)N=C(c2ccccc2)c2ccccc21 [BMS‐906024] | 0.71
O=C(O)CC[C@H]1CC[C@@](c2cc(F)ccc2F)(S(=O)(=O)c2ccc(Cl)cc2)CC1 [MK‐0752] | 191
CCC[C@H](N[C@H]1CCc2cc(F)cc(F)c2C1)C(=O)Nc1cn(C(C)(C)CNCC(C)(C)C)cn1 [PF‐3084014] | 0.81
CC(C)(C(=O)NCC(F)(F)C(F)(F)F)C(=O)N[C@@H]1C(=O)Nc2ccccc2-c2ccccc21 [RO4929097] | 3.4
CC(C)[C@H](O)C(=O)N[C@@H](C)C(=O)N[C@@H]1C(=O)N(C)CCc2ccccc21 [Semagacestat] | 46

Test system: NOTCH
Assay: not given
Set-up: method as in ref Appendix Table S1 (Gavai et al, 2015; Cook et al, 2010; Krop et al, 2012; Wei et al, 2010; Luistro et al, 2009; Mitani et al, 2012)
Conditions: ref Appendix Table S1 (Gavai et al, 2015; Cook et al, 2010; Krop et al, 2012; Wei et al, 2010; Luistro et al, 2009; Mitani et al, 2012); read-out: Reported IC50s NOTCH; cited from earlier work

SMILES | IC50 [nM]
CN1C(=O)[C@@H](NC(=O)[C@H](CCC(F)(F)F)[C@H](CCC(F)(F)F)C(N)=O)N=C(c2ccccc2)c2ccccc21 [BMS‐906024] | 0.7 to 3.4
O=C(O)CC[C@H]1CC[C@@](c2cc(F)ccc2F)(S(=O)(=O)c2ccc(Cl)cc2)CC1 [MK‐0752] | 55
CCC[C@H](N[C@H]1CCc2cc(F)cc(F)c2C1)C(=O)Nc1cn(C(C)(C)CNCC(C)(C)C)cn1 [PF‐3084014] | 13.3
CC(C)(C(=O)NCC(F)(F)C(F)(F)F)C(=O)N[C@@H]1C(=O)Nc2ccccc2-c2ccccc21 [RO4929097] | 5
CC(C)[C@H](O)C(=O)N[C@@H](C)C(=O)N[C@@H]1C(=O)N(C)CCc2ccccc21 [Semagacestat] | 14.1

Test system: rAPPC100sub
Assay: Cell-free γ-secretase assay, rAPPC100sub (IP-MS), low-dose potentiation
Type: biochemical
Conditions: in vitro assay, recombinant substrate
Description: as §1

SMILES | concentration at which cleavage from rAPPC100sub was potentiated [nM]
CN1C(=O)[C@@H](NC(=O)[C@H](CCC(F)(F)F)[C@H](CCC(F)(F)F)C(N)=O)N=C(c2ccccc2)c2ccccc21 [BMS‐906024] | 0.03
CC(C)[C@H](O)C(=O)N[C@@H](C)C(=O)N[C@@H]1C(=O)N(C)CCc2ccccc21 [Semagacestat] | 0.16

Reference: paper PMC5494507, “γ‐Secretase inhibitors in cancer clinical trials are pharmacologically and functionally distinct” (EMBO Molecular Medicine, 2017)
